The record followed here is patent publication US10829501B2 (BRISTOL-MYERS SQUIBB COMPANY, priority 2016, dated 2020).

Each structure is given as a SMILES string. Where a name gives a salt, the structure may show the parent alone.

The target of the first assay is ROCK2 (Homo sapiens, UniProt O75116). Kind of assay: ROCK2 kinase inhibition assay (LABCHIP 3000 Reader, FITC peptide substrate).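 Note: rho kinase reaction read by separating phosphorylated from unphosphorylated peptide on chip, with inhibition of kinase activity computed per concentration across a dose-response series.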
ROCK2, sequence (O75116 whole entry, species assumed): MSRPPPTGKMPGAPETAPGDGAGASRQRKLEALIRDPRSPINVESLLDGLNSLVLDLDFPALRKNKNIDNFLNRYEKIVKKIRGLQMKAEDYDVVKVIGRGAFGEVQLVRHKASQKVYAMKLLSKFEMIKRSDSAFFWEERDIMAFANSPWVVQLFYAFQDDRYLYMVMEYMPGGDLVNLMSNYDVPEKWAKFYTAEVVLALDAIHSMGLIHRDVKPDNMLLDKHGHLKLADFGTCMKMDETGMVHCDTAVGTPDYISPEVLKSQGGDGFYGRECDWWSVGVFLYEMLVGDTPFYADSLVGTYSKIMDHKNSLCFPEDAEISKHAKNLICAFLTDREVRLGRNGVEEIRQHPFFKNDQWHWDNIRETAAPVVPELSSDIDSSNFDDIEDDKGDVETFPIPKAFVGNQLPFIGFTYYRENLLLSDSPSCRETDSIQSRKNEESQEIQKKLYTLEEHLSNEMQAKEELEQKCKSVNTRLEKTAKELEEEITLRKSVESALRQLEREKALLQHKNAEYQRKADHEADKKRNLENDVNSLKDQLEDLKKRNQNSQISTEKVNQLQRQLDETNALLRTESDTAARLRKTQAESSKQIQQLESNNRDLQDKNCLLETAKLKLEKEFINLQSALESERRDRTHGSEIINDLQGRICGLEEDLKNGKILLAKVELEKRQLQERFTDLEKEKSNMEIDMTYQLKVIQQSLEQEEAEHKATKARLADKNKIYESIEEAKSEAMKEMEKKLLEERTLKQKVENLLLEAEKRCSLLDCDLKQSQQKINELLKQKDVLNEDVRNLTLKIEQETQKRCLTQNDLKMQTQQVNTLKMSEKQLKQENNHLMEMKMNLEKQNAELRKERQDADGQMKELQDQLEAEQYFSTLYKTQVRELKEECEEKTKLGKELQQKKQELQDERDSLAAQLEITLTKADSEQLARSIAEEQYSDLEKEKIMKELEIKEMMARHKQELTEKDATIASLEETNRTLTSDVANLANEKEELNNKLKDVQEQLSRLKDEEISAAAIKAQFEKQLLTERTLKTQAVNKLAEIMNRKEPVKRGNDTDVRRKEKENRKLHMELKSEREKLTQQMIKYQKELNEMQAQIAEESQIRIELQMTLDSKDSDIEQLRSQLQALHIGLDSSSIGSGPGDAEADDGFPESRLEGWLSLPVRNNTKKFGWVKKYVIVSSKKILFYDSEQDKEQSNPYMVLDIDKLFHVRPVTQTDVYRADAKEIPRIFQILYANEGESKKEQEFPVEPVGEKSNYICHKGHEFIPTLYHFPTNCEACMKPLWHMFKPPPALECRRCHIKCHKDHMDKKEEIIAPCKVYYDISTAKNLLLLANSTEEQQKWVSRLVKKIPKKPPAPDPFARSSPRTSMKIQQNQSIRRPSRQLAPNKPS
Conditions: not given
As usually defined, the IC50 is the concentration that gives 50% inhibition. In turn, `CCOC(=O)Cc1cccc(-c2ccc(C(N)=O)c(OC3CC4(CC(NC(=O)c5cnn6cc(OCC(C)(C)O)ccc56)C4)C3)c2)c1` (centres unmarked) [Example 282, ethyl 2-(4′-carbamoyl-3′-((6-(6-(2-hydroxy-2-methylpropoxy)pyrazolo[1,5-a]pyridine-3-carboxamido)spiro[3.3]heptan-2-yl)oxy)-[1,1′-biphenyl]-3-yl)acetate] gave an IC50 of 5 to 50 nM.
Turning to `N#Cc1ccc2c(c1)CN(C(=O)NC1CC3(C1)CC(Oc1ncccc1C(N)=O)C3)C2` (centres unmarked) [Example 13, N-(6-((3-carbamoylpyridin-2-yl)oxy)spiro[3.3]heptan-2-yl)-5-cyanoisoindoline-2-carboxamide], the 50% inhibitory concentration (IC50) fell in the range of 50 to 250 nM.
The molecule `Cn1cc(-c2c(OCC(C)(C)O)ccc3c(C(=O)N[C@H]4CC5(C4)C[C@H](Oc4ncccc4C(N)=O)C5)cnn23)cn1` (stereo partly drawn) [Example 101, N-((aR)-6-((3-carbamoylpyridin-2-yl)oxy)spiro[3.3]heptan-2-yl)-6-(2-hydroxy-2-methylpropoxy)-7-(1-methyl-1H-pyrazol-4-yl)pyrazolo[1,5-a]pyridine-3-carboxamide, trifluoroacetate] registered a half-inhibitory concentration (IC50) of 5 to 50 nM.
Regarding `Cc1nc(-c2ccccc2)sc1C(=O)N[C@H]1CC2(C1)C[C@H](Oc1ncccc1C(N)=O)C2` (stereo partly drawn) [Example 96, N-((aR)-6-((3-carbamoylpyridin-2-yl)oxy)spiro[3.3]heptan-2-yl)-4-methyl-2-phenylthiazole-5-carboxamide, trifluoroacetate], the IC50 lay in the range of 50 to 250 nM.
Regarding `COC(=O)N1CC(Oc2ccc3c(C(=O)N[C@H]4CC5(C4)C[C@H](Oc4ccccc4C(N)=O)C5)cnn3c2)C1` (stereo partly drawn) [Example 27, methyl 3-((3-(((aR)-6-(2-carbamoylphenoxy)spiro[3.3]heptan-2-yl)carbamoyl)pyrazolo[1,5-a]pyridin-6-yl)oxy)azetidine-1-carboxylate], the IC50 was 5 to 50 nM.
On the same count and under the same terms, the result for `N#Cc1cc(C(=O)N[C@H]2CC3(C2)C[C@H](Oc2ncccc2C(N)=O)C3)cc(-c2ccc(C#N)nc2)c1` (stereo partly drawn) [Example 191, 2-(((aR)-6-(3-cyano-5-(6-cyanopyridin-3-yl)benzamido)spiro[3.3]heptan-2-yl)oxy)nicotinamide, trifluoroacetate] reads 5 to 50 nM; that for `[H][C@]1(Oc2ccccc2C(N)=O)C[C@@]2(C[C@H](NC(=O)c3cnn4c(C5CC5)c(OCC(C)(C)O)ccc34)C2)C1` (stereo partly drawn) [Example 15, N-((aR)-6-(2-carbamoylphenoxy)spiro[3.3]heptan-2-yl)-7-cyclopropyl-6-(2-hydroxy-2-methylpropoxy)pyrazolo[1,5-a]pyridine-3-carboxamide], less than 5 nM.
Regarding `NC(=O)c1cccnc1O[C@H]1CC2(C[C@H](NC(=O)c3cnn4cc(N5CCOCC5)ccc34)C2)C1` (stereo partly drawn) [Example 317, N-((aR)-6-((3-carbamoylpyridin-2-yl)oxy)spiro[3.3]heptan-2-yl)-6-morpholinopyrazolo[1,5-a]pyridine-3-carboxamide], the IC50 is 5 to 50 nM.
Molecule `CN1CCN(c2ccn3c(C(=O)N[C@H]4CC5(C4)C[C@H](Oc4ccccc4C(N)=O)C5)cnc3c2)CC1` (stereo partly drawn) [Example 36, N-[(aR)-6-(2-carbamoylphenoxy)spiro [3.3]heptan-2-yl]-7-(4-methylpiperazin-1-yl)imidazo[1,2-a] pyridine-3-carboxamdie] displayed a half-maximal inhibitory concentration (IC50) of 5 to 50 nM.
As for `NC(=O)c1cccnc1O[C@H]1CC2(C[C@H](NC(=O)c3cnc4cc(N5CC[C@@H](O)C5)ccn34)C2)C1` (stereo partly drawn) [Example 326, N-((aR)-6-((3-carbamoylpyridin-2-yl)oxy)spiro[3.3]heptan-2-yl)-7-((R)-3-hydroxypyrrolidin-1-yl)imidazo[1,2-a]pyridine-3-carboxamide], the concentration for half-maximal inhibition (IC50) lay within 5 to 50 nM.
With `[H][C@]1(Oc2cc(-c3cnn(C)c3)ccc2C(N)=O)C[C@@]2(C[C@H](NC(=O)c3cnn4cc(OCC(C)(C)O)ccc34)C2)C1` (single isomer, unassigned) [Example 276], the half-maximal inhibitory concentration (IC50) fell in the range of 5 to 50 nM.
`[H][C@]1(Oc2ncccc2C(N)=O)C[C@@]2(C[C@H](NC(=O)c3cnn(-c4ccc(N5CCOCC5)cc4)c3C)C2)C1` (some centres unmarked) [Example 378] displayed a 50% inhibitory concentration (IC50) of 50 to 250 nM.
In turn, `NC(=O)c1ccccc1O[C@H]1CC2(C[C@H](NC(=O)c3cnn4cc(OCC(F)F)ccc34)C2)C1` (stereo partly drawn) [Example 22, N-[(aR)-6-(2-carbamoylphenoxy)spiro[3.3]heptan-2-yl]-6-(2,2-difluoroethoxy)pyrazolo [1,5-a]pyridine-3-carboxamide] registered a concentration for half-maximal inhibition (IC50) of 5 to 50 nM.
In the case of `Cc1nc2cc(-c3cc(C#N)cc(C(=O)N[C@H]4CC5(C4)C[C@H](Oc4ncccc4C(N)=O)C5)c3)ccc2s1` (stereo partly drawn) [Example 186, 2-(((aR)-6-(3-cyano-5-(2-methylbenzo[d]thiazol-5-yl)benzamido)spiro[3.3]heptan-2-yl)oxy)nicotinamide, trifluoroacetate], the half-maximal inhibitory concentration (IC50) was less than 5 nM.
As for `[H][C@]1(Oc2ncccc2C(N)=O)C[C@@]2(C[C@H](NC(=O)c3nnn4c(C5CC5)c(OCc5ccccc5)ccc34)C2)C1` (stereo partly drawn) [Example 374, 6-(benzyloxy)-N-((aR)-6-((3-carbamoylpyridin-2-yl)oxy)spiro[3.3]heptan-2-yl)-7-cyclopropyl-[1,2,3]triazolo[1,5-a]pyridine-3-carboxamide], the IC50 lay in the range of 50 to 250 nM.
`NC(=O)c1cccnc1O[C@H]1CC2(C[C@H](NC(=O)c3ccc(F)c(S(N)(=O)=O)c3)C2)C1` (stereo partly drawn) [Example 150, 2-(((aR)-6-(4-fluoro-3-sulfamoylbenzamido)spiro[3.3]heptan-2-yl)oxy) nicotinamide, trifluoroacetate] came in with a 50% inhibitory concentration (IC50) of 5 to 50 nM.
Molecule `[H][C@]1(Oc2ncccc2C(N)=O)C[C@@]2(C[C@H](NC(=O)c3cc(Br)cc(OCCC(F)(F)F)c3)C2)C1` (some centres unmarked) [Example 56] gave a half-inhibitory concentration (IC50) of 5 to 50 nM.
In turn, `CC(C)(O)Cn1nc(C(=O)N[C@H]2CC3(C2)C[C@H](Oc2ncccc2C(N)=O)C3)c2ccc(OC(F)(F)F)cc21` (stereo partly drawn) [Example 98, N-((aR)-6-((3-carbamoylpyridin-2-yl)oxy)spiro[3.3]heptan-2-yl)-1-(2-hydroxy-2-methylpropyl)-6-(trifluoromethoxy)-1H-indazole-3-carboxamide, trifluoroacetate] registered an IC50 of 5 to 50 nM.
For the molecule `NC(=O)c1cccnc1OC1CC2(CC(NC(=O)c3cnn4cc(OC(CF)CF)ccc34)C2)C1` (centres unmarked) [Example 9, N-(6-((3-carbamoylpyridin-2-yl)oxy)spiro[3.3]heptan-2-yl)-6-((1,3-difluoropropan-2-yl)oxy)pyrazolo[1,5-a]pyridine-3-carboxamide], the half-inhibitory concentration (IC50) fell in the range of 5 to 50 nM.
Consider `COc1ccc2c(C(=O)N[C@H]3CC4(C3)C[C@H](Oc3ncccc3C(N)=O)C4)cnn2c1CCC(F)(F)F` (stereo partly drawn) [Example 99, N-((aR)-6-((3-carbamoylpyridin-2-yl)oxy)spiro[3.3]heptan-2-yl)-6-methoxy-7-(3,3,3-trifluoropropyl) pyrazolo[1,5-a]pyridine-3-carboxamide, trifluoroacetate], for which the 50% inhibitory concentration (IC50) fell in the range of 5 to 50 nM.
On to `NC(=O)c1cccnc1O[C@H]1CC2(C[C@H](NC(=O)c3cnn4cc(OCCC(F)(F)F)ccc34)C2)C1` (stereo partly drawn) [Example 82, N-((aR)-6-((3-carbamoylpyridin-2-yl)oxy)spiro[3.3]heptan-2-yl)-6-(3,3,3-trifluoropropoxy) pyrazolo[1,5-a]pyridine-3-carboxamide, trifluoroacetate], for which the IC50 was less than 5 nM.
Still for that read-out and setting: with `CS(=O)(=O)c1ccc2c(c1)CCN2C(=O)N[C@H]1CC2(C1)C[C@H](Oc1ccccc1C(N)=O)C2` (stereo partly drawn) [Example 39, N-[(aR)-6-(2-carbamoylphenoxy)spiro [3.3]heptan-2-yl]-5-methanesulfonyl-2,3-dihydro-1H-indole-1-carboxamide] the figure was 50 to 250 nM; with `NC(=O)c1cccnc1O[C@H]1CC2(C[C@H](NC(=O)c3cnn4cc(OCC5(O)CC(F)(F)C5)ccc34)C2)C1` (stereo partly drawn) [Example 413, N-((aR)-6-((3-carbamoylpyridin-2-yl)oxy)spiro[3.3]heptan-2-yl)-6-((3,3-difluoro-1-hydroxycyclobutyl)methoxy)pyrazolo[1,5-a]pyridine-3-carboxamide, TFA], 5 to 50 nM.

The assay is the same for the next values; noted with them: read-out: ROCK2 Activity (ROCK2 IC50); 5 μM ATP, 1.5 μM peptide substrate, pH 7.5.
For `CC(C)(C#N)n1nc(C(=O)NC2CC3(C2)CC(Oc2ncccc2C(N)=O)C3)c2ccc(F)cc21` [Example 401, N-((aR)-6-((3-carbamoylpyridin-2-yl)oxy)spiro[3.3]heptan-2-yl)-1-(2-cyanopropan-2-yl)-6-fluoro-1H-indazole-3-carboxamide, TFA], the concentration for half-maximal inhibition (IC50) is less than 5 nM.
`Cc1nc(C(=O)NC2CC3(C2)CC(Oc2ncccc2C(N)=O)C3)c2ccc(-c3cnn(C)c3)cn12` [Example 460, N-((aR)-6-((3-carbamoylpyridin-2-yl)oxy)spiro[3.3]heptan-2-yl)-3-methyl-6-(1-methyl-1H-pyrazol-4-yl)imidazo[1,5-a]pyridine-1-carboxamide]: the IC50 was 5 to 50 nM.
For the molecule `NC(=O)c1cccnc1OC1CC2(CC(NC(=O)c3cc(C(F)(F)F)cc4c3NC(=O)OC4)C2)C1` [Example 426, N-((aR)-6-((3-carbamoylpyridin-2-yl)oxy)spiro[3.3]heptan-2-yl)-2-oxo-6-(trifluoromethyl)-1,4-dihydro-2H-benzo[d][1,3]oxazine-8-carboxamide], the 50% inhibitory concentration (IC50) lay in the range of 5 to 50 nM.
For `Cc1c(C(=O)NC2CC3(C2)CC(Oc2ncccc2C(N)=O)C3)cnn1-c1ccc(S(C)(=O)=O)cc1` [Example 387, N-[(aR)2-({6-[1-(4-methanesulfonylphenyl)-5-methyl-1H-pyrazole-4-amido]spiro[3.3]heptan-2-yl}oxy)pyridine-3-carboxamide 1 trifluoroacetic acid salt], the IC50 was in the range of 5 to 50 nM.
Still for that read-out and setting: the result for `CC1(O)CCN(c2cc(C(=O)NC3CC4(C3)CC(Oc3ncccc3C(N)=O)C4)cc(C(F)(F)F)c2)CC1` [Example 450, 2-(((aR)-6-(3-(4-hydroxy-4-methylpiperidin-1-yl)-5-(trifluoromethyl)benzamido)spiro[3.3]heptan-2-yl)oxy)nicotinamide] reads 5 to 50 nM.
As for `Cc1c(-c2ccc3c(C(=O)NC4CC5(C4)CC(Oc4ncccc4C(N)=O)C5)nc(C)n3c2)cnn1C` [Example 458, N-((aR)-6-((3-carbamoylpyridin-2-yl)oxy)spiro[3.3]heptan-2-yl)-6-(1,5-dimethyl-H-pyrazol-4-yl)-3-methylimidazo[1,5-a]pyridine-1-carboxamide], the IC50 lay in the range of 5 to 50 nM.
